We go through 7 molecules from patent US20240043420A1, “7-AZAINDOLE COMPOUNDS FOR INHIBITION OF BCR-ABL TYROSINE KINASES” (EnLiven Therapeutics, Inc., priority 2020, published 2024).

One test addresses T1, ABL1 (Homo sapiens, UniProt P00519).
T1 construct: purchased Carna Biosciences
Nature of the test: Luminescence-based ABL kinase assay (ADP-Glo, 300 μM ATP). In kind it is biochemical. An outline of the steps:
(§1)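 ABL1 (3.325 nM in the enzyme solution) was preincubated with compound for 30 min at RT in HEPES pH 7.5 buffer with MgCl2, EGTA, DTT, BSA and Brij-35. Adding Peptide 2 and ATP (6 μM and 1.2 mM in the start solution) began a 90 min RT reaction. ADP-Glo luminescence gave % activity and IC50.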
(In general: In ADP-Glo the light output rises with the ADP produced.)

For a further test, the system named is K562 cells. Nature of the test: K562 cell proliferation assay (CellTiter-Glo). Format: cell-based. As to conditions: Homo sapiens, K562, 72 h, CellTiter-Glo viability, read-out: Cell Line (IC50, nM) K562. An outline of the steps:
(§2)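 Cells in IMDM/10% FBS seeded at 2,000 (K562) or 1,500 (HL60) per well, exposed to serially diluted compounds for 72 h at 37 °C, 5% CO2. Viability by CellTiter-Glo luminescence, normalized between DMSO (high) and cell-free media (low) controls.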
A general note: In ATP-based viability assays light output follows the ATP content of the culture.

The target of a further test is ABL1 (T315I) (Homo sapiens, UniProt P00519, T315I). Description: Luminescence-based ABL kinase assay (ADP-Glo, 300 μM ATP), T315I mutant. Format: biochemical. Summed up:
as §1

Test [1] concerns pCRKL in Ba/F3 ABL1 (T315I) cells. Description: pCRKL ELISA assay in Ba/F3 ABL T315I cells. In kind it is cell-based. As to conditions: Mus musculus, BaF3, 1.5 h, 90 minutes incubation, read-out: pCRKL ELISA, Cell Line IC50 (nM) Ba/F3 ABL1 (T315I). As for the experimental part:
(§3) K562 or Ba/F3 ABL T315I cells (2.0*10^5 cells/100 μl/well) were seeded in 96 well (Corning, cat #3799). Compounds were dissolved in DMSO, serially diluted in DMSO and then were added, mixed, and incubated for 90 minutes at 37° C., 5% CO2. Following the 90-minute incubation, plates were centrifuged for 5 min at 3000 RPM and supernatant was removed from each well. Cells were washed 3 times with 150 μl PBS prior to addition of 100 μl cell RIPA lysis buffer (Boston BioProducts, cat #BP-115D) supplied with 1×complete ULTRA cocktail inhibitor (Roche, 05892791001) and 1×PhosSTOP Phosphatase Inhibitor Cocktail Tablets (Roche, 04906837001). Cells were incubated with lysis buffer for 1 hour at 4° C. prior to storage at −80 C.
(§4) A capture antibody able to detect phosphorylated and non-phosphorylated CRKL (R&D Systems, cat #AF5127) was added to Meso Scale Discovery (MSD) standard bind plates (MSD, cat #L15XA-3) at 5 ug/mL and incubated at 4° C. overnight. The next day, plates were washed with PBS+0.05% Tween20 (PBST) and 150 μl of 5% BSA blocking solution was added for 1 hour at room temperature with shaking. Plates were washed with PBST. Lysates were thawed and 30 μl of lysate was added to the MSD plates and incubated for 2 hours at room temperature with shaking. MSD plates were washed with PBST and 30 μl of a detection antibody that binds phosphorylated pCRKL (R&D Systems, cat #MAB6910) was added at 1 μg/mL to each well. Plates were incubated for 1 hour at room temperature with shaking. Plates were washed with PBST prior to addition of 30 μl of a sulfo tagged goat anti mouse detection antibody (MSD cat #R32AC-1). Plates were incubated for 1 hour at room temperature with shaking. Plates were washed with PBST prior to addition of 150 ul of 1×MSD read buffer T (MSD, cat 4R92TC-2). Electrochemiluminescence (ECLU) was read on an MSD plate reader (Meso Scale Discovery). The remaining activity by calculated as follows: 00 Relative activity=100×(ELCUsample−ECLULC)/(ECLUHC−ECLULC). The low and high controls (LC/HC) are generated from lysate from wells without cells or with cells treated with 0.1% DMSO, respectively. IC50 values were calculated using XLFit software using a nonlinear regression model with a sigmoidal dose response and are shown in Table 4 and Table 5 below.
For orientation: ELISA stands for enzyme-linked immunosorbent assay.

For the next test, the system named is HL60 cells. Description: HL60 cell proliferation assay (CellTiter-Glo). Format: cell-based. The following applies: Homo sapiens, HL-60, 72 h, CellTiter-Glo viability, read-out: Cell Line (IC50, nM) HL60. Summed up:
as §2

A further test relates to pCRKL in K562 cells. Nature of the test: pCRKL ELISA assay in K562 cells. In kind it is cell-based. The following applies: Homo sapiens, 1.5 h, 90 minutes incubation, read-out: PCRKL ELISA, Cell Line IC50 (nM) K562. As for the experimental part:
as §3, §4

Structures are written as SMILES. Bounds are passed on as bounds.

For the molecule `COc1ncc(F)c(OC)c1-c1c[nH]c2nc(NC(=O)[C@@H]3C[C@@H]3F)ccc12` [Compound 76, (1S,2S)-2-fluoro-N-[3-(5-fluoro-2,4-dimethoxypyridin-3-yl)-1H-pyrrolo[2,3-b]pyridin-6-yl]cyclopropane-1-carboxamide], the IC50 on ABL1 was 5.14 nM; in the test on K562 cells, 35.8 nM; on ABL1 (T315I) it was 7.38 nM; in test [1], 50.1 nM; in the test with HL60 cells, over 10000 nM; in the test with pCRKL in K562 cells it was 65.4 nM.

For `COc1cc2ncsc2c(F)c1-c1c[nH]c2nc(NC(=O)[C@@H]3C[C@@H]3F)ccc12` [Compound 147, (1S,2S)-2-fluoro-N-(3-(7-fluoro-5-methoxybenzo[d]thiazol-6-yl)-1H-pyrrolo[2,3-b]pyridin-6-yl)cyclopropane-1-carboxamide], the IC50 is 5.54 nM at ABL1; 16.1 nM with K562 cells; 1.71 nM at ABL1 (T315I); 35.7 nM in test [1]; over 10000 nM with HL60 cells; 35.7 nM with pCRKL in K562 cells.

Turning to `COc1ccnc(OC)c1-c1c[nH]c2nc(NC(=O)[C@@H]3C[C@@H]3F)ccc12` [Compound 75, (1S,2S)—N-[3-(2,4-dimethoxypyridin-3-yl)-1H-pyrrolo[2,3-b]pyridin-6-yl]-2-fluorocyclopropane-1-carboxamide], the IC50 is 15.1 nM against ABL1; 54.6 nM with K562 cells; 17.6 nM on ABL1 (T315I); 162 nM in test [1]; over 10000 nM with HL60 cells; 86.3 nM in the test with pCRKL in K562 cells.

For `COc1ncccc1-c1c[nH]c2nc(NC(=O)[C@@H]3C[C@@H]3F)ccc12` [Compound 27, (1S,2S)-2-fluoro-N-(3-(2-methoxypyridin-3-yl)-1H-pyrrolo[2,3-b]pyridin-6-yl)cyclopropane-1-carboxamide], the IC50 is 29 nM against ABL1; 156 nM in the test on K562 cells; 20.2 nM at ABL1 (T315I); 183 nM in test [1]; over 10000 nM in the test on HL60 cells; 164 nM in the test on pCRKL in K562 cells.

For `COc1ccccc1-c1n[nH]c2nc(NC(=O)[C@@H]3C[C@@H]3F)ccc12` [Compound 54, (1S,2S)-2-fluoro-N-[3-(2-methoxyphenyl)-1H-pyrazolo[3,4-b]pyridin-6-yl]cyclopropane-1-carboxamide], the IC50 against ABL1 is 14.3 nM; in the test with K562 cells, 88.4 nM; against ABL1 (T315I), 16.3 nM; in test [1], 198 nM; with HL60 cells, over 10000 nM; with pCRKL in K562 cells, 95.8 nM.

For the molecule `COc1ccc(F)cc1-c1n[nH]c2nc(NC(=O)[C@@H]3C[C@@H]3F)ccc12` [Compound 98, (1S,2S)-2-fluoro-N-[3-(5-fluoro-2-methoxyphenyl)-1H-pyrazolo[3,4-b]pyridin-6-yl]cyclopropane-1-carboxamide], the IC50 is 16.4 nM against ABL1; 106 nM with K562 cells; 12.9 nM on ABL1 (T315I); 241 nM in test [1]; over 10000 nM in the test with HL60 cells; 174 nM in the test on pCRKL in K562 cells.

On to `COc1c(-c2c[nH]c3nc(NC(=O)[C@@H]4C[C@@H]4F)ccc23)cc(F)c2[nH]cnc12` [Compound 95, (1S,2S)-2-fluoro-N-(3-(7-fluoro-4-methoxy-1H-benzo[d]imidazol-5-yl)-1H-pyrrolo[2,3-b]pyridin-6-yl)cyclopropanecarboxamide], for which the IC50 on ABL1 is 6.32 nM; in the test on K562 cells, 221 nM; on ABL1 (T315I) it was 2.14 nM; in test [1], 429 nM; in the test with HL60 cells it was over 10000 nM; in the test with pCRKL in K562 cells, 656 nM.
